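Five compound concentrations were applied to cells in 96-well plates for 48 hours; endpoints were derived by simple linear interpolation of the resulting dose-response curve. Abbreviation: GI50, concentration required for 50% inhibition of growth.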 The source made the active and inactive calls. Cut-off read from the data, not from the text of the source: active = GI50 up to about 1.1 µM and inactive = higher.
Columns and labels:
Experiment in all cases: NCI tumour cell line growth inhibition, 48 h
SK-MEL-28 = tested on: SK-MEL-28
SK-MEL-2 = tested on: SK-MEL-2
HOP-92 = tested on: HOP-92
UACC-257 = tested on: UACC-257
DU-145 = tested on: DU-145
CAKI-1 = tested on: CAKI-1
HOP-62 = tested on: HOP-62
HCC 2998 = tested on: HCC 2998
786-0 = tested on: 786-0
HCT-116 = tested on: HCT-116
NCI-H460 = tested on: NCI-H460
RPMI-8226 = tested on: RPMI-8226
COLO 205 = tested on: COLO 205
NCI/ADR-RES = tested on: NCI/ADR-RES
PC-3 = tested on: PC-3
OVCAR-3 = tested on: OVCAR-3
SK-MEL-5 = tested on: SK-MEL-5
SF-295 = tested on: SF-295
MDA-MB-231 = tested on: MDA-MB-231

| Structure (SMILES) | GI50 (SK-MEL-28) | GI50 (SK-MEL-2) | GI50 (HOP-92) | GI50 (UACC-257) | GI50 (DU-145) | GI50 (CAKI-1) | GI50 (HOP-62) | GI50 (HCC 2998) | GI50 (786-0) | GI50 (HCT-116) | GI50 (NCI-H460) | GI50 (RPMI-8226) | GI50 (COLO 205) | GI50 (NCI/ADR-RES) | GI50 (PC-3) | GI50 (OVCAR-3) | GI50 (SK-MEL-5) | GI50 (SF-295) | GI50 (MDA-MB-231) |
| --- | --- | --- | --- | --- | --- | --- | --- | --- | --- | --- | --- | --- | --- | --- | --- | --- | --- | --- | --- |
| CCOC(=O)/C(=C\NCC(OCC)OCC)c1nc2ccccc2[nH]1 | 26.8 µM (inactive) | 22.3 µM (inactive) | 35.6 µM (inactive) | 25.1 µM (inactive) | 43.7 µM (inactive) | 38.9 µM (inactive) | 31.8 µM (inactive) | 20.1 µM (inactive) | 31.5 µM (inactive) | 29.6 µM (inactive) | 23.1 µM (inactive) | 18.7 µM (inactive) | 16.5 µM (inactive) | 2.02 µM (inactive) | 24 µM (inactive) | 22 µM (inactive) | 14.5 µM (inactive) | 32.1 µM (inactive) |  |
| CCCCCCCCCCCc1cc(=O)c2c(O)cccc2o1 | 94.6 µM (inactive) | 24.1 µM (inactive) | > 100 µM (inactive) | 36 µM (inactive) |  | > 100 µM (inactive) | > 100 µM (inactive) | 66.2 µM (inactive) | > 100 µM (inactive) | 41.9 µM (inactive) | 79.1 µM (inactive) | 30.6 µM (inactive) | > 100 µM (inactive) |  |  | > 100 µM (inactive) | 44.8 µM (inactive) | 87.5 µM (inactive) |  |
| CCOC(=O)c1c(SCCN2CCOCC2)n(-c2ccccc2)c(=S)n(-c2ccccc2)c1=O | 24 µM (inactive) | > 100 µM (inactive) | 51.6 µM (inactive) | 25.8 µM (inactive) | > 10 µM (inactive) |  |  | > 100 µM (inactive) | 21.2 µM (inactive) |  | > 100 µM (inactive) | 33.7 µM (inactive) | > 100 µM (inactive) |  |  | 49.2 µM (inactive) | 27.7 µM (inactive) | 25.6 µM (inactive) | 44 µM (inactive) |
| O=C(O)CC(NC(=O)C(F)(F)F)C(=O)NC1Cc2ccccc2OC1=O (centres undefined) | > 100 µM (inactive) | > 100 µM (inactive) |  | > 100 µM (inactive) | > 100 µM (inactive) | > 100 µM (inactive) | > 100 µM (inactive) | > 100 µM (inactive) | > 100 µM (inactive) |  | > 100 µM (inactive) | > 100 µM (inactive) |  | > 100 µM (inactive) | > 100 µM (inactive) | > 100 µM (inactive) | > 100 µM (inactive) | > 100 µM (inactive) |  |
| Cc1cc2c(cc1C)C(=O)/C(=C/c1ccccc1C(=O)O)C2 | 64.4 µM (inactive) | 35.4 µM (inactive) | 33.3 µM (inactive) | > 100 µM (inactive) | > 100 µM (inactive) | 72.4 µM (inactive) | 42.4 µM (inactive) | 27.4 µM (inactive) | 40.3 µM (inactive) | 37.9 µM (inactive) | 40.5 µM (inactive) | 24.3 µM (inactive) | 19.5 µM (inactive) | 54.8 µM (inactive) | 33.9 µM (inactive) | 31.7 µM (inactive) | 47.6 µM (inactive) | 32.5 µM (inactive) |  |
| c1ccc2cc(CNCCOCCOCCNCc3ccc4ccccc4c3)ccc2c1 | 1.97 µM (inactive) | 1.91 µM (inactive) | 1.52 µM (inactive) | 1.49 µM (inactive) | 1.78 µM (inactive) | 1.81 µM (inactive) | 1.85 µM (inactive) | 0.208 µM (active) | 1.57 µM (inactive) | 1.58 µM (inactive) | 1.64 µM (inactive) | 1.19 µM (inactive) | 1.48 µM (inactive) |  | 2.17 µM (inactive) | 1.67 µM (inactive) | 2.39 µM (inactive) | 1.64 µM (inactive) | 1.57 µM (inactive) |
| O=C1C=C2CC[C@H]3[C@@H]4CC[C@H](OC(=O)c5cccc6cc7ccccc7nc56)[C@H]4CC[C@@H]3[C@H]2CC1 | > 100 µM (inactive) | > 100 µM (inactive) |  | > 100 µM (inactive) | > 100 µM (inactive) |  | > 100 µM (inactive) |  | > 100 µM (inactive) | > 100 µM (inactive) |  | 93.3 µM (inactive) | > 100 µM (inactive) | > 100 µM (inactive) | > 100 µM (inactive) | 39.5 µM (inactive) | > 100 µM (inactive) | > 100 µM (inactive) | 50.1 µM (inactive) |
| O=C(Nc1nnc(-c2ccc(Cl)cc2)o1)C(SC(=S)N1CCOCC1)c1ccccc1 (centres undefined) | 23.2 µM (inactive) | 14.7 µM (inactive) |  | 33 µM (inactive) | 23.7 µM (inactive) | 20.3 µM (inactive) | 16.6 µM (inactive) |  | 9.35 µM (inactive) | 10.2 µM (inactive) | 6.44 µM (inactive) | 9.48 µM (inactive) | 13.7 µM (inactive) | 5.58 µM (inactive) | 13.6 µM (inactive) | 9.38 µM (inactive) | 12.4 µM (inactive) | 13.1 µM (inactive) | 30.3 µM (inactive) |
| Cc1nc2c(=S)[nH]ncc2[nH]1 | > 100 µM (inactive) | > 100 µM (inactive) | > 100 µM (inactive) | > 100 µM (inactive) |  | > 100 µM (inactive) | > 100 µM (inactive) | > 100 µM (inactive) | > 100 µM (inactive) | > 100 µM (inactive) |  | > 100 µM (inactive) | > 100 µM (inactive) | > 100 µM (inactive) | > 100 µM (inactive) | > 100 µM (inactive) | > 100 µM (inactive) | > 100 µM (inactive) | > 100 µM (inactive) |
| COc1ccc(Oc2cccc(C3C4C(=O)N(c5ccc(C)c(Cl)c5)C(=O)C4ON3C(C(N)=O)c3ccccc3)c2)cc1 (centres undefined) | 41.5 µM (inactive) | 11.2 µM (inactive) | 24 µM (inactive) | 10.7 µM (inactive) | 9.59 µM (inactive) | 21 µM (inactive) | 35.2 µM (inactive) |  | 16.1 µM (inactive) | 14 µM (inactive) | 14.8 µM (inactive) |  | 15.1 µM (inactive) |  | 18.9 µM (inactive) | 16.7 µM (inactive) | 9.55 µM (inactive) | 35.9 µM (inactive) | 34 µM (inactive) |
| COc1ccc(Nc2nc3cc(C(F)(F)F)ccc3nc2-c2ccccc2)cc1OC | 19.8 µM (inactive) | 48.9 µM (inactive) | 1.16 µM (inactive) | 27.2 µM (inactive) |  | 31.5 µM (inactive) | 2.74 µM (inactive) | > 100 µM (inactive) | 41.8 µM (inactive) | 12.6 µM (inactive) | 27.7 µM (inactive) |  | 29.3 µM (inactive) |  |  | 18.7 µM (inactive) | 20.3 µM (inactive) | 11.3 µM (inactive) |  |
| CC(C)(C)OC(=O)C1/C(=C/CBr)CN1C(=O)OC(C)(C)C (centres undefined) | 17.7 µM (inactive) | > 10 µM (inactive) | 13.9 µM (inactive) | 16.3 µM (inactive) |  | 16.5 µM (inactive) | 15.8 µM (inactive) | 16.9 µM (inactive) | 11.2 µM (inactive) | 11.4 µM (inactive) | 16.7 µM (inactive) | 3.98 µM (inactive) | 2.56 µM (inactive) | 22.8 µM (inactive) | 14.3 µM (inactive) | 14.7 µM (inactive) | 14.3 µM (inactive) | 15.9 µM (inactive) |  |
| COC12OCCN(C)C1=CC(=O)C1=NNC(C)C12 (centres undefined) | > 100 µM (inactive) |  | > 100 µM (inactive) | > 100 µM (inactive) |  | > 100 µM (inactive) |  | > 100 µM (inactive) | > 100 µM (inactive) | > 100 µM (inactive) | > 100 µM (inactive) | > 100 µM (inactive) | > 100 µM (inactive) |  |  | > 100 µM (inactive) | > 100 µM (inactive) | > 100 µM (inactive) |  |
| COC1=CC(c2ccc(Br)[nH]2)=N/C1=C/NCC(C)C | 2.75 µM (inactive) | 1.5 µM (inactive) | 1.32 µM (inactive) | 2.07 µM (inactive) | 0.475 µM (active) | 2.36 µM (inactive) | 1.47 µM (inactive) | 1.34 µM (inactive) | 1.55 µM (inactive) | 1.44 µM (inactive) | 1.62 µM (inactive) | 0.412 µM (active) | 1.24 µM (inactive) |  | 1.47 µM (inactive) | 1.62 µM (inactive) | 1.53 µM (inactive) | 1.6 µM (inactive) | 2.02 µM (inactive) |
| COC(=O)C1=C(O)C(C(=O)OC)[C@]2(O)[C@H](C(=O)OC)[C@H]1C[C@@H](c1ccc(OC)cc1)[C@H]2C(=O)OC (some centres undefined) | 30.4 µM (inactive) | 19.8 µM (inactive) | 59.7 µM (inactive) | 24.7 µM (inactive) |  | 19.5 µM (inactive) | 29.9 µM (inactive) | 17.8 µM (inactive) | 20.2 µM (inactive) | 16.3 µM (inactive) | 17.7 µM (inactive) | 12.4 µM (inactive) | 35.2 µM (inactive) | 23.8 µM (inactive) |  |  | 13.7 µM (inactive) | 44.6 µM (inactive) | 30 µM (inactive) |
| CCOC(=O)C(Cc1ccccc1)NC(=O)c1nc[nH]c1/N=N/N(C)C (centres undefined) | > 100 µM (inactive) | > 100 µM (inactive) |  | > 100 µM (inactive) |  | > 100 µM (inactive) | > 100 µM (inactive) | > 100 µM (inactive) | > 100 µM (inactive) | > 100 µM (inactive) | > 100 µM (inactive) | > 100 µM (inactive) | > 100 µM (inactive) |  |  | > 100 µM (inactive) | > 100 µM (inactive) | > 100 µM (inactive) |  |
| CC1CCCC2=C1C(c1ccc(Cl)cc1)n1c(s/c(=C\c3ccc(Cl)cc3)c1=O)=N2 (centres undefined) | > 100 µM (inactive) | > 100 µM (inactive) | > 100 µM (inactive) | > 100 µM (inactive) | > 100 µM (inactive) | > 100 µM (inactive) | > 100 µM (inactive) |  | > 100 µM (inactive) | > 100 µM (inactive) |  | > 100 µM (inactive) | > 100 µM (inactive) |  | > 100 µM (inactive) |  | > 100 µM (inactive) |  | > 100 µM (inactive) |
